Measurements published in paper PMC3462190, “A Peptidic Unconjugated GRP78/BiP Ligand Modulates the Unfolded Protein Response and Induces Prostate Cancer Cell Death” (PLoS ONE, 2012).
Where no end group is shown, it is not given here.

B1: Bag-1 peptide: internal sequence of 68 amino acids of Bag-1 (Bag1-L 202–269), HA-tagged, expressed from pcDNA3 (peptide)
chain: TPLSALGIQDGCRVMLIGKKNSPQEEVELKKLKHLEKSVEKIADQLEELNKELTGIQQGFLPKDLQAE
modifications: also: HA tag, end not given here

Tests used:
[1] = system: BPH-1 cells; assay: Clonogenic assay; assay type: cell-based, Human; conditions: benign prostate cells, 19-mer vector vs control; at least three experiments
Method: Figure 6 Selectivity of action of the Bag-1 peptide. A Amino acid sequence of the 19mer peptide and its deletion mutants. B GST pull-down assay performed incubating 400 µg of 22Rv.1 cell lysate and 25 µg of GST-fused deletion mutants of the 19mer peptide. After the pull-down experiment, Western blots were carried out with anti-GRP78/BiP and GST antibodies. C. Fluorescence polarization (FP) assays with a 10 nM FITC-labeled 7-mer Bag-1 peptide and dilutions of the GST-fused substrate binding domain of GRP78 in 60 µl of Tris-GSH buffer (50 mM Tris, 10 mM reduced glutathione and 0.1% BSA, pH 8.0). Triplicate samples were measured after 5 h of incubation at room temperature with an Infinite F-200 reader (Tecan) with excitation at 490 nm and emission at 535 nm. Binding constants were determined from three independent experiments using non-linear regression in Sigma Plot 10.0. D. Competition assays with a complex of 10 nM of FITC-labeled Bag-1 7-mer peptide and 0.75 mg/ml GST-fused GRP78 substrate binding domain was measured against a dilution series from 100 µM to 0.1 nM of wild-type Bag-1 7-mer peptide (filled line) or triple mutant peptide (dotted line) in 40 µl of Tris-GSH buffer. […] Fluorescence polarization was determined as described above and IC50 values were determined in Sigma Plot. […] The colonies were stained and quantified. […]

[2] = system: 22Rv.1 xenograft tumor; assay: TUNEL assay on xenograft tumor sections; assay type: in vivo, athymic nude mice; conditions: 22Rv.1 xenografts, clones P25, P29 and P42 vs V18, V19 and V33
Method: Tissues were fixed in 10% formalin for 16 h at room temperature, stored in ethanol (50%), paraffin embedded, and sectioned 5 µm thick with a Leica RM 2155 microtome. Apoptotic cells were detected via terminal deoxynucleotidyl transferase-mediated deoxyuridine-triphosphate-biotin nick end labeling (TUNEL) assay using the DNA fragmentation ApopTag® peroxidase in situ apoptosis detection kit (Millipore, Schwalbach, Germany).
Figure 4 The Bag-1 peptide inhibits prostate cancer cell growth in vivo. A. Stable clones of 22Rv.1 cells show reduced cell viability in vitro. Stable clones were seeded in a 96-well plate and the cell number in each well was estimated by measuring the ratio between the wavelength of excitation and emission 560/590 nm using the CellTiter-Blue™ proliferation assay. The bar charts represent the mean of at least four independent experiments ±SD (*p<0.05). B. Determination of the level of the Bag-1 expressed in the 22Rv.1 clones. Cellular extracts of 22v.1 stable clones were subjected to Western blot analysis. An anti-HA antibody was used to detect the peptide and an anti-β-actin antibody for equal loading control. […] Tumor size was measured once per week using a caliper and expressed as tumor volume in mm^3. […] Nuclei are stained blue-purple with hematoxylin while apoptotic cells detected with the TUNEL assay are stained brown. […]

Row | Molecule | BPH-1 growth in clonogenic assay [1] | TUNEL positive cells (apoptosis) [2]
1 | 19-mer: Bag-1L 202–220 (TPLSALGIQDGCRVMLIGK; not fully specified) | not growth inhibited | –
2 | B1 | – | strong signals indicative of massive apoptosis
